Values after ≈ are worked out from the molar mass of the structure shown.
What was measured:
[1] = tested on: Plasmodium falciparum; assay: Antiplasmodial activity after 24 hrs against chloroquine-resistant, mefloquine-sensitive Plasmodium falciparum W2 infected human erythrocytes by [G-3H]hypoxanthine uptake; assay type: functional, organism-based; details: W2, 24 h
[2] = tested on: HepG2; assay: (§1) Cytotoxicity against human HepG2 cells assessed as decrease in proliferation at 100 uM by MTT assay; assay type: cell-based; details: hepg2, 100 µM
[3] = Cytotoxicity against HSF assessed as decrease in proliferation at 100 uM by MTT assay; design: scale not given: the % may be the effect or the level left; details: human
[4] = tested on: Plasmodium falciparum; assay: Antiplasmodial activity after 24 hrs against chloroquine-sensitive, mefloquine-resistant Plasmodium falciparum D6 infected human erythrocytes by [G-3H]hypoxanthine uptake; assay type: functional, organism-based; details: D6, 24 h
[5] = as §1; assay type: cell-based; details: HepG2 cells, read-out: Activity

Row | SMILES | IC50 [1] | Activity [2] | Activity [3] | IC50 [4] | inhibition at 100 µM [5]
1 | COc1cc(O[C@@H]2O[C@H](COC(=O)c3cc(O)c(O)c(O)c3)[C@@H](O)[C@H](O)[C@H]2O)cc(OC)c1OC | 1.58 mg/L (≈ 3.18 µM) | Non-toxic | Non-toxic | 1.75 mg/L (≈ 3.5 µM) | 
2 | O=c1oc2c(O)c(O)cc3c(=O)oc4c(O)c(O)cc1c4c23 [ELLAGIC ACID] | 0.103 mg/L (≈ 0.341 µM) |  | 20% | 0.145 mg/L (≈ 0.48 µM) | 9%
3 | O=C(O)c1cc(O)c(O)c(O)c1 [GALLIC ACID] |  |  |  | > 5 mg/L | 
4 | OC(c1cc(C(F)(F)F)nc2c(C(F)(F)F)cccc12)C1CCCCN1 (configuration not stated) [MEFLOQUINE] | 0.00136 mg/L (≈ 0.00359 µM) |  |  |  | 
5 | O=C(O)c1ccc(O)cc1 [PARABEN] |  |  |  | > 5 mg/L | 
6 | O=C(O)c1ccc(O)c(O)c1 [PROTOCATECHUIC ACID] |  |  |  | > 5 mg/L | 

Reference: ChEMBL document CHEMBL1150835, “In vitro antiplasmodial activity of extracts of Tristaniopsis species and identification of the active constituents: ellagic acid and 3,4,5-trimethoxyphenyl-(6'-O-galloyl)-O-beta-D-glucopyranoside” (J Nat Prod, 2001)
